{"source": "patent US20070286875A1", "about": "(Morton Grove Pharmaceuticals, Inc., priority 2006, published 2007)", "origin": "cited, not measured here", "key": {"[1]": {"details": "10 mg once daily with erythromycin, cimetidine, ketoconazole"}}}
{"smiles": "CCOC(=O)N1CCC(=C2c3ccc(Cl)cc3CCc3cccnc32)CC1", "note": "[loratadine, ethyl 4-(8-chloro-5,6-dihydro-11H-benzo[5,6]cyclohepta[1,2-b]pyridin-11-ylidene)-1-piperidinecarboxylate]", "values": [{"measurement": "binding to peripheral versus central nervous system H1-receptors", "setting": "H1-receptors", "result": "preferential binding to peripheral"}, {"measurement": "changes in safety profile on co-administration", "setting": "[1]", "result": "no clinically relevant changes"}]}
